Results taken from US11622951B2, “Alpha-aminoadipate for treatment of vision loss and restoring sight” (The Schepens Eye Research Institute, Inc., priority 2013, dated 2023).

What was measured:
retinal ganglion cells = assay: Cell-attached patch clamp of retinal ganglion cells from Rho-/- mice; design: species or system mouse; conditions: retinas extracted from treated eyes of Rho-/- mice, cells responding/recorded
Procedure: Mice carrying rhodopsin deficiency (Rho^−/−) were used to determine if injection of alpha-aminoadipate (αAA) is sufficient to induce neuroregeneration from endogenous retinal progenitors, e.g., Muller cells, leading to preservation and restoration of photoreceptor cell function. Light-evoked photoreceptor responses and retinal functions in Rho^−/− mice that received αAA or saline injection were assessed using ERGS and whole cell-attached patch clamp. […] Consistent with the presence of ERG b-waves in αAA-treated eye, light-elicited spiking responses in some of the ganglion cells were observed (n=4/9) (FIG. 15 A, B). Similar to findings from other types of retinal degenerative mice, an elevated level of background firing in these cells, likely due to the changes in the excitability of the presynaptic network formed by bipolar cells and amacrine cells, were also observed. In contrast, no light-elicited responses in ganglion cells were recorded from the saline-injected eyes (n=4/4, FIG. 14C). […] Additional vision and optomotor tests known in the art are conducted to assess vision restoration, such as the water maze test. Thus, a single intraocular injection of αAA may be sufficient to improve vision, in part by increasing the number of cones.

cone photoreceptor cells = assay: Cone opsin immunohistochemistry of retinal sections of Rho-/- mice; type: in vivo, mouse
Procedure: To determine if αAA induces functional neuroregeneration in Rho^−/− mice, αAA was injected subretinally into the left eyes of 6 week-old Rho^−/− mice, while their contralateral eyes were injected with saline and served as controls. After a 4 week survival period to allow regeneration of new photoreceptors, mouse ERG was measured in both eyes and then performed immunohistochemistry to identify photoreceptor cells. Rho^−/− mice lack the rod photoreceptor cell component or ERG a-wave. As cones consist of ˜3% of photoreceptors in mice, it is difficult to assess cone action a-wave; therefore, flicker ERG photometry under cone-isolation conditions was used to measure cone functions. […] The ERG b-wave arises from neural activity downstream of photoreceptors, its presence in the αAA treated eye has a very important implication: not only is the treatment creating new or preserving existing photoreceptors, such photoreceptors are integrating into the existing retinal circuitry in such a way as to elicit activity in downstream neurons (most likely bipolar cells). […] Consistent with the presence of ERG b-waves in αAA-treated eye, light-elicited spiking responses in some of the ganglion cells were observed (n=4/9) (FIG. 15 A, B). […] In contrast, no light-elicited responses in ganglion cells were recorded from the saline-injected eyes (n=4/4, FIG. 14C). […]

NC(CCCC(=O)O)C(=O)O (stereo not drawn) [α-AA, alpha-aminoadipate]
ganglion cells with light-elicited spiking responses (retinal ganglion cells): 4/9
retinal neuron damage (cone photoreceptor cells; single intraocular injection): does not cause apparent retinal neuron damage
number of cone photoreceptor cells (cone photoreceptor cells; single subretinal injection at 6 weeks old, vs saline-treated control): increased number of cone photoreceptor cells
